Results: ChEMBL document CHEMBL1147835, “A practical synthesis of the major 3-hydroxy-2-pyrrolidinone metabolite of a potent CDK2/cyclin A inhibitor” (Bioorg Med Chem Lett, 2006)

Experiments:
[1] = target: Cyclin-dependent kinase 2/cyclin A (Homo sapiens, UniProt P24941); experiment: Inhibition of CDK2/cyclin A; assay type: protein-complex assay
A2780 = experiment: Antiproliferative activity against human A2780 cells; assay type: functional, cell-based

Molecule `C[C@H](C(=O)Nc1cc(C2CC2)n[nH]1)c1ccc(N2CC[C@@H](O)C2=O)cc1` has an IC50 [1] of 27 nM and an IC50 (A2780) of 1600 nM.
`C[C@H](C(=O)Nc1cc(C2CC2)n[nH]1)c1ccc(N2CC[C@H](O)C2=O)cc1` gave an IC50 [1] of 27 nM and an IC50 (A2780) of 2200 nM.
